Our source for the Kd values is publication PMC11694556 (Proteins, 2024).

Type in all cases: binding
The target of test [1] is T1, cypin (cytosolic PSD-95 interactor; guanine deaminase) (Rattus norvegicus, UniProt Q9WTT6).
T1 construct: gene Gda
T1 sequence (Q9WTT6 1-454): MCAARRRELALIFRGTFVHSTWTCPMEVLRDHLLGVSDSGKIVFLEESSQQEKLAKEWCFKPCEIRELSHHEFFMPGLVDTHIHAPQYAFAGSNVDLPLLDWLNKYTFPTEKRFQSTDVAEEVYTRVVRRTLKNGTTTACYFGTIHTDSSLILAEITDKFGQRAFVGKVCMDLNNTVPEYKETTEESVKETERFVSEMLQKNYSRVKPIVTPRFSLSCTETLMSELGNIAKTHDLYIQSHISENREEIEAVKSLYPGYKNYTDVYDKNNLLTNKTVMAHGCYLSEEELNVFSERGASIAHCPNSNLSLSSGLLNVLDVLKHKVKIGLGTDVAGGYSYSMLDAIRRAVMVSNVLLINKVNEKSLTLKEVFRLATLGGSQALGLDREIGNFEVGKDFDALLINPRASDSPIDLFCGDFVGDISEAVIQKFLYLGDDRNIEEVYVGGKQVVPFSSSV
Description: intrinsic tryptophan fluorescence quenching (Hill fit); also Amplex Red coupled xanthine oxidase/uricase assay.

The target in test [2] is T1, cypin (cytosolic PSD-95 interactor; guanine deaminase). The experiment in a line: intrinsic tryptophan fluorescence quenching; also NADH-coupled deaminase assay (Km […]).
Test [3] shares this target. The experiment in a line: intrinsic tryptophan fluorescence quenching; also NADH-coupled assay (Km […]) and LC-MS of deaminated product.

What is called Kd is the equilibrium constant for the complex coming apart.

`Nc1nc2c(ncn2COCCO)c(=O)[nH]1` [acyclovir] showed a dissociation constant Kd in test [1] of 227 µM. In test [2], `Nc1nc2nc[nH]c2c(=O)[nH]1` [guanine] returned a Kd of 0.598 µM. For `CC(C)[C@H](N)C(=O)OCCOCn1cnc2c(=O)[nH]c(N)nc21` [valacyclovir], the Kd in test [3] is 74.4 µM.
